# In PubChem BioAssay (NCI):
#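 At the GI50, growth is halved. TGI: total growth inhibition.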
# Key:
# Test in all cases: DTP human tumour cell line panel, 384-well format
# [1] = tested on: SK-OV-3 ovarian
# [2] = tested on: COLO 205 colon
# [3] = tested on: SK-MEL-28 melanoma
# [4] = tested on: M14 melanoma
# [5] = tested on: MOLT-4 leukemia
# [6] = tested on: K-562 leukemia
# [7] = tested on: RXF 393 renal
# [8] = tested on: ACHN renal
# [9] = tested on: UACC-257 melanoma
# [10] = tested on: SK-MEL-5 melanoma
# [11] = tested on: CCRF-CEM leukemia
# [12] = tested on: PC-3 prostate
# [13] = tested on: NCI-H23 lung
# [14] = tested on: SW-620 colon
# [15] = tested on: SK-MEL-2 melanoma
# [16] = tested on: SR leukemia
# [17] = tested on: MDA-MB-231 breast
# [18] = tested on: UACC-62 melanoma
# [19] = tested on: 786-0 renal
# [20] = tested on: HT29 colon
# [21] = tested on: SNB-19 CNS
# [22] = tested on: MCF7 breast
# [23] = tested on: MDA-MB-468 breast
# [24] = tested on: CAKI-1 renal
# [25] = tested on: OVCAR-8 ovarian
# [26] = tested on: DU-145 prostate
# [27] = tested on: TK-10 renal
# [28] = tested on: SN12C renal
# [29] = tested on: HOP-92 NSCLC
# [30] = tested on: OVCAR-4 ovarian
# [31] = tested on: MALME-3M melanoma
# [32] = tested on: HOP-62 NSCLC
# [33] = tested on: BT-549 breast
# [34] = tested on: T-47D breast
# [35] = tested on: SF-295 CNS
# [36] = tested on: OVCAR-3 ovarian
# [37] = tested on: RPMI-8226 leukemia
# [38] = tested on: IGROV1 ovarian
# [39] = tested on: HL-60(TB) leukemia
# [40] = tested on: NCI-H226 lung
# [41] = tested on: KM12 colon
# [42] = tested on: HCC-2998 colon
# [43] = tested on: LOX IMVI melanoma
# [44] = tested on: NCI-H460 NSCLC
# [45] = tested on: U251 glioblastoma
# [46] = tested on: NCI-H322M lung
# [47] = tested on: OVCAR-5 ovarian
# [48] = tested on: SF-268 CNS
# [49] = tested on: SF-539 CNS
# [50] = tested on: NCI-H522 lung
# [51] = tested on: HCT-116 colon
# [52] = tested on: A498 renal
# [53] = tested on: A549 NSCLC
# [54] = tested on: HCT-15 colon
# [55] = tested on: NCI/ADR-RES ovarian
# [56] = tested on: UO-31 renal
# [57] = tested on: MDA-MB-435 melanoma
structure (smiles),measurement,setting,value
CC1(C)CCC2(CC1)N[C@@H](C(=O)N[C@@H]1CC[C@@H](C(N)=O)OC1)[C@H](c1ccnc(Cl)c1F)[C@]21C(=O)Nc2cc(Cl)ccc21,GI50,[1],1800 nM
same,TGI,[1],3670 nM
same,GI50,[2],1910 nM
same,TGI,[2],3420 nM
same,GI50,[3],1710 nM
same,TGI,[3],3150 nM
same,GI50,[4],47.3 nM
same,TGI,[4],2030 nM
same,GI50,[5],< 10 nM
same,TGI,[5],11.9 nM
same,GI50,[6],1640 nM
same,TGI,[6],3030 nM
same,GI50,[7],1420 nM
same,TGI,[7],2840 nM
same,GI50,[8],28.5 nM
same,TGI,[8],650 nM
same,GI50,[9],94.6 nM
same,TGI,[9],490 nM
same,GI50,[10],668 nM
same,TGI,[10],2070 nM
same,GI50,[11],1920 nM
same,TGI,[11],3430 nM
same,GI50,[12],1840 nM
same,TGI,[12],3330 nM
same,GI50,[13],2040 nM
same,TGI,[13],5350 nM
same,GI50,[14],3320 nM
same,TGI,[14],11100 nM
same,GI50,[15],1880 nM
same,TGI,[15],3320 nM
same,GI50,[16],< 10 nM
same,GI50,[17],1820 nM
same,TGI,[17],3400 nM
same,GI50,[18],< 10 nM
same,TGI,[18],1070 nM
same,GI50,[19],2020 nM
same,TGI,[19],4300 nM
same,GI50,[20],1730 nM
same,TGI,[20],3240 nM
same,GI50,[21],2350 nM
same,TGI,[21],5150 nM
same,GI50,[22],31.2 nM
same,TGI,[22],741 nM
same,GI50,[23],1930 nM
same,TGI,[23],3710 nM
same,GI50,[24],< 10 nM
same,TGI,[24],347 nM
same,GI50,[25],2400 nM
same,TGI,[25],5610 nM
same,GI50,[26],2660 nM
same,TGI,[26],6740 nM
same,GI50,[27],2500 nM
same,TGI,[27],7330 nM
same,GI50,[28],2670 nM
same,TGI,[28],7980 nM
same,GI50,[29],1710 nM
same,TGI,[29],3530 nM
same,GI50,[30],1910 nM
same,TGI,[30],5550 nM
same,GI50,[31],77.7 nM
same,TGI,[31],1040 nM
same,GI50,[32],1850 nM
same,TGI,[32],3780 nM
same,GI50,[33],1740 nM
same,TGI,[33],3780 nM
same,GI50,[34],1630 nM
same,TGI,[34],4100 nM
same,GI50,[35],1740 nM
same,TGI,[35],3290 nM
same,GI50,[36],1660 nM
same,TGI,[36],3220 nM
same,GI50,[37],1660 nM
same,TGI,[37],3040 nM
same,GI50,[38],224 nM
same,TGI,[38],2440 nM
same,GI50,[39],2110 nM
same,TGI,[39],3550 nM
same,GI50,[40],11.8 nM
same,TGI,[40],65.9 nM
same,GI50,[41],1980 nM
same,TGI,[41],3820 nM
same,GI50,[42],1340 nM
same,TGI,[42],2700 nM
same,GI50,[43],345 nM
same,TGI,[43],1880 nM
same,GI50,[44],31.2 nM
same,TGI,[44],1130 nM
same,GI50,[45],2080 nM
same,TGI,[45],4450 nM
same,GI50,[46],2300 nM
same,TGI,[46],5990 nM
same,GI50,[47],2280 nM
same,TGI,[47],5340 nM
same,GI50,[48],2120 nM
same,TGI,[48],4560 nM
same,GI50,[49],1660 nM
same,TGI,[49],3120 nM
same,GI50,[50],1580 nM
same,TGI,[50],3020 nM
same,GI50,[51],35.2 nM
same,TGI,[51],1390 nM
same,GI50,[52],24.4 nM
same,TGI,[52],971 nM
same,GI50,[53],74.6 nM
same,TGI,[53],1300 nM
same,GI50,[54],1910 nM
same,TGI,[54],3690 nM
same,GI50,[55],14000 nM
same,TGI,[55],27200 nM
same,GI50,[56],78.5 nM
same,TGI,[56],335 nM
same,GI50,[57],1810 nM
same,TGI,[57],3440 nM
